Measurements: US7678787B2, “Pyrrolobenzodiazepine pyridine carboxamides and derivatives as follicle-stimulating hormone receptor antagonists” (Wyeth, priority 2005, dated 2010)
pIC50: −log10 of the molar value. Where “and” joins values, the source holds several entries; their conditions need not be identical. Equal values may be shown once.

Columns and labels:
[1] = molecular target: T1, hFSH-R (Homo sapiens, UniProt P23945); assay: cAMP accumulation (RIA) in CHO-3D2 cells (hFSH-R), hFSH-induced; assay type: cell-based; conditions: inhibition of cAMP accumulation induced by hFSH at EC20, CHO-3D2 cells
T1 construct: expressed in transfected cells; host or cells: CHO-3D2 cells (CHO-K1 parental line)
T1 sequence (P23945 18-695): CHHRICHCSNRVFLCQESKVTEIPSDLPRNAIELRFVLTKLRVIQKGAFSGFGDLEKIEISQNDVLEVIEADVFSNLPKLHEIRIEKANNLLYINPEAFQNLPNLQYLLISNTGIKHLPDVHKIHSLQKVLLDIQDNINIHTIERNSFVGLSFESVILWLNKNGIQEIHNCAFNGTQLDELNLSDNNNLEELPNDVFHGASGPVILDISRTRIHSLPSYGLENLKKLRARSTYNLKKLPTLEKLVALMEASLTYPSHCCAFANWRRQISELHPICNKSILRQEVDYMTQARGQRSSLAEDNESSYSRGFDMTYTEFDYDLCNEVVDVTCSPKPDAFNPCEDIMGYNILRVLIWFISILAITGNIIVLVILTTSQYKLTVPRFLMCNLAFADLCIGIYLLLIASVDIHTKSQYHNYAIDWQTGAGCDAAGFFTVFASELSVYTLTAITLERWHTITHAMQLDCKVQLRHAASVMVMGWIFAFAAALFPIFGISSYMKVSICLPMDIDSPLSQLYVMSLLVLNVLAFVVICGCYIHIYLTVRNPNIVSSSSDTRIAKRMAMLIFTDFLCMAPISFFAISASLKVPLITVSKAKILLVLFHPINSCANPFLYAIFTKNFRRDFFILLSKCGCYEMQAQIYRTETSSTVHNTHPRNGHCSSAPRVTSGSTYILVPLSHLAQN
Procedure: IN VITRO BIO-ASSAY OF AGONISTS AND ANTAGONISTS TO THE FSH RECEPTOR. SELECTIVITY AND DEPENDENCY OF AGONISTS AND ANTAGONISTS TO THE FSH RECEPTOR
Compound Vehicle: Stock compounds were solubilized in 100% DMSO (Sigma-Aldrich Chemical Co., St. Louis, Mo.) at a concentration of 30 mM. The compounds subsequently were diluted in sterile assay medium consisting of Opti-MEM® I (Invitrogen/Life Technologies, Carlsbad, Calif.) with 0.1% (w/v) BSA (Sigma-Aldrich) prior to use in the bio-assay. The final concentration of DMSO in the assay was 0.1%.
Plated cells are then incubated at 37° C. in a humidified 5% CO2/95% air atmosphere.
Assay: On the day of the assay, cells were washed three times with 100 μl/well of assay medium consisting of Opti-MEM® I (Invitrogen/Life Technologies) with 0.1% (w/v) BSA (Sigma-Aldrich). Medium was removed and 100 μl of assay medium was added to each well. Plates were incubated for an additional 30 minutes at 37° C. […] Reactions were terminated by the addition of 50 μl of 0.2N hydrochloric acid to each well and cAMP-accumulation was measured by radioimmunoassay (RIA) using a commercially available kit (Amersham Biosciences, Piscataway, N.J.).
All test compounds were evaluated in a dose-response paradigm ranging from 0.01 to 30 μM. Controls and test compounds were evaluated in quadruplicate in a 96-well format.
Along with the test compounds, FSH was run also as a postive control in the agonist mode using concentrations ranging from 0.1-1000 ng/ml.
Data were analyzed by one-way analysis of variance and significant differences between treatments and control determined by Least Significant Difference test.
Test compounds were compared to the effect of purified human FSH.

[2] = molecular target: T2, human FSH receptor (Homo sapiens, UniProt P23945); assay: FSH receptor-dependent CRE-luciferase reporter gene assay (CHO FSH-R 6CRE-Luc cells); assay type: cell-based; conditions: dose-response format in presence of EC50 of purified human FSH; * n=3, ** n=2 averages
T2 construct: host or cells: CHO-K1 (CHO FSH-R 6CRE-Luc, 1D7 cells)
T2 sequence (P23945 18-695): T1 sequence (P23945 18-695)
Description: FOLLICLE-STIMULATING HORMONE RECEPTOR-DEPENDENT CRE-LUCIFERASE REPORTER GENE ASSAY FOR THE IDENTIFICATION OF FOLLICLE-STIMULATING HORMONE (FSH) ANTAGONISTS
A Chinese hamster ovarian cell line that stably produces the human FSH receptor and a luciferase reporter gene regulated by cAMP response elements was used to identify and determine the relative potencies of human FSH receptor antagonists. See for example, Kelton, C. A., et al. Mol. Cell. Endocrinol. 89:141-151 (1992), Tilly, J. L., et al. Endocrinology 131:799-806(1992), and George, S. E., et al. J. Biomol. Screening 2:235-240 (1997).
Compound Vehicle: Stock compounds were solubilized in an appropriate vehicle, e.g., phosphate buffered saline (PBS) or dimethyl sulfoxide (DMSO), at 30 mM. The compounds subsequently were diluted in DMSO to working dilutions of 1 and 20 or 30 mM for 2-dose testing format and 1 μM-10 mM for dose-response format. The DMSO dilutions were diluted 500-fold in sterile growth medium [D-MEM/F-12 (GIBCO/BRL; Grand Island, N.Y.) containing 15 mM HEPES, 2 mM l-glutamine, pyridoxine hydrochloride, phenol red and 5% FETALCLONE® II (HyClone Laboratories, Inc; Logan, Utah), 0.2% DMSO, 100 units penicillin G/ml, and 100 μg streptomycin sulfate/ml (GIBCO/BRL)]. The concentration of the vehicle in each of the compound dilutions was the same.
Positive Controls: Purified human FSH (>98%) was purchased from Cortex Biochem, Inc. (San Leandro, Calif.) and 3-[(2S*,5R*)-5-{[2-(1H-Indol-3-yl)-ethylcarbamoyl]-methyl}-4-oxo-2-(5-phenylethynyl-thiophen-2-yl)-thiazolidin-3-yl]-benzamide (an FSH-R thiazolidinone antagonist) was prepared by processes described by R. A. Scheuerman et al. in U.S. Pat. No. 6,426,357 (Affymax).
The CHO FSH-R 6CRE-Luc cells (1D7 cells) were obtained from Affymax (Palo Alto, Calif.). These Chinese hamster ovary cells (CHO-K1) were engineered genetically to stably express the recombinant human FSH receptor gene and a luciferase reporter gene under the regulation of 6 copies of a cAMP response element. The cells were plated one day prior to treatment into 96-well white opaque plates at a density of 50,000 cells/100 μl/well in growth medium. On the day of treatment, the growth medium was removed from the wells by aspiration and 50 μl of fresh growth medium was added to each well. The cells were incubated at 37° C. in a humidified incubator with 5% CO2/95% air.
The treated cells were incubated for 4 hours at 37° C. in a humidified incubator with 5% CO2/95% air. At the end of the incubation period, luciferase activity was measured by chemiluminescence using a commercially available kit (LucScreen, Tropix, Inc., Bedford, Mass.) according to the manufacturer's specifications, except that Buffer 1 and Buffer 2 were mixed together in equal proportion prior to the addition of 100 μl of the combined reagents to each well. Chemiluminescence was detected using a luminometer (EG & G Berthold Microlumat LB 96 P, Wallac, Gaithersburg, Md.) with chemiluminescence measured for 1 sec/well. Background luminescence was measured for each well prior to the addition of the LucScreen reagent.
In the 96-well 2-dose format, each compound was tested in duplicate at each dose. […] One plate was used to test a maximum of 22 compounds.
The EC50 of purified human FSH alone was tested in triplicate with each test compound. The doses chosen to test each compound were extrapolated from the initial 2-dose screening process. Along with the test compounds, purified human FSH also was tested in a dose response (0.03, 0.1, 0.3, 1, 3, 10, and 30 ng/ml) for a positive control and quality control. One plate was used for 3 test compounds and the FSH positive control.
Luciferase activity is expressed as relative light units/sec/well. Luciferase activity in antagonist was compared to the appropriate negative and positive controls. For 2-dose testing, results are reported as luciferase activity and are expressed as percent inhibition of the response obtained from the EC50 of FSH.

SMILES | pIC50 [1] | pIC50 [2] | melting point
CC(O)c1ccccc1-c1ccc(C(=O)N2Cc3ccc(C(=O)NCc4cccnc4)n3Cc3ccccc32)cc1 (racemic) [Example 52] | 7.00 | 6.94 | 122 to 126 °C and 118 °C and 122 °C
COc1cc(C(=O)N2Cc3ccc(C(=O)NCc4cccnc4)n3Cc3ccccc32)ccc1-c1ccccc1C [Example 1] | 6.70 | 6.00 | 165 to 167 °C
Cc1ccccc1-c1ccc(C(=O)N2Cc3ccc(C(=O)NCc4cccnc4)n3Cc3ccccc32)cc1C [Example 3] | 7.10 | 6.04 | 148 to 150 °C
Cc1ccccc1-c1ccc(C(=O)N2Cc3ccc(C(=O)NCc4ccc[n+]([O-])c4)n3Cc3ccccc32)cc1C [Example 4] | 6.10 | 6.02 | 170 to 173 °C
COc1ccccc1-c1ccc(C(=O)N2Cc3ccc(C(=O)NCc4cncc(Br)c4)n3Cc3ccccc32)cc1 [Example 6, N-[(5-BROMOPYRIDIN-3-YL)METHYLL]-10-[(2′-METHOXY-1,1′-BIPHENYL-4-YL)CARBONYL]-10,11-DIHYDRO-5H-PYRROLO[2,1-C][1,4]BENZODIAZEPINE-3-CARBOXAMIDE] | 5.27 | 5.05 | 180 to 184 °C
N#Cc1ccccc1-c1ccc(C(=O)N2Cc3ccc(C(=O)NCc4cccnc4)n3Cc3ccccc32)cc1 [Example 30] | 6.57 | 5.96 | –
CC(C)c1ccccc1-c1ccc(C(=O)N2Cc3ccc(C(=O)NCc4cccnc4)n3Cc3ccccc32)cc1 [Example 31] | 6.48 | 6.03 | –
COC(=O)Cc1ccccc1-c1ccc(C(=O)N2Cc3ccc(C(=O)NCc4cccnc4)n3Cc3ccccc32)cc1 [Example 32] | 7.70 | 6.81 | –
CCOc1ccccc1-c1ccc(C(=O)N2Cc3ccc(C(=O)NCc4cccnc4)n3Cc3ccccc32)cc1 [Example 33] | 6.05 | 5.84 | –
O=C(NCc1cccnc1)c1ccc2n1Cc1ccccc1N(C(=O)c1ccc(-c3ccccc3O)cc1)C2 [Example 34] | 6.23 | 5.81 | –
CC(C)C(=O)c1ccccc1-c1ccc(C(=O)N2Cc3ccc(C(=O)NCc4cccnc4)n3Cc3ccccc32)cc1 [Example 36] | 6.37 | 5.73 | –
CC(C)C(O)c1ccccc1-c1ccc(C(=O)N2Cc3ccc(C(=O)NCc4cccnc4)n3Cc3ccccc32)cc1 (stereo not shown) [Example 37] | 6.31 | 5.79 | –
NC(=O)Cc1ccccc1-c1ccc(C(=O)N2Cc3ccc(C(=O)NCc4cccnc4)n3Cc3ccccc32)cc1 [Example 38] | 7.05 | 7.11 | –
CNC(=O)Cc1ccccc1-c1ccc(C(=O)N2Cc3ccc(C(=O)NCc4cccnc4)n3Cc3ccccc32)cc1 [Example 39] | 6.60 | 6.38 | –
CN(C)C(=O)Cc1ccccc1-c1ccc(C(=O)N2Cc3ccc(C(=O)NCc4cccnc4)n3Cc3ccccc32)cc1 [Example 40] | 6.49 | 6.04 | –
Cc1cc(C(=O)N2Cc3ccc(C(=O)NCc4cccnc4)n3Cc3ccccc32)ccc1-c1ccccc1C(C)O (stereo not shown) [Example 50] | 6.52 | 6.00 | –
CCNC(=O)Cc1ccccc1-c1ccc(C(=O)N2Cc3ccc(C(=O)NCc4cccnc4)n3Cc3ccccc32)cc1 [Example 66] | 6.09 | 5.44 | –
CC(C)(C)c1ccc(C(=O)N2Cc3ccc(C(=O)NCc4cccnc4)n3Cc3ccccc32)cc1 [Example 80] | 5.96 | 5.30 | –
CN(C)c1ccc(C(=O)N2Cc3ccc(C(=O)NCc4cccnc4)n3Cc3ccccc32)cc1 [Example 84] | 5.92 | 5.24 | –
O=C(NCc1cccnc1)c1ccc2n1Cc1ccccc1N(C(=O)c1ccc(OC(F)(F)F)cc1)C2 [Example 85] | 5.96 | 5.19 | –
CCCc1ccc(C(=O)N2Cc3ccc(C(=O)NCc4cccnc4)n3Cc3ccccc32)cc1 [Example 98] | 6.40 | 5.30 | –
CCN(CC)c1ccc(C(=O)N2Cc3ccc(C(=O)NCc4cccnc4)n3Cc3ccccc32)cc1 [Example 102] | 6.10 | 5.24 | –
Cc1cc(C(=O)N2Cc3ccc(C(=O)NCc4cccnc4)n3Cc3ccccc32)ccc1-c1cccs1 [Example 104] | 6.40 | 5.52 | –
O=C(NCc1cccnc1)c1ccc2n1Cc1ccccc1N(C(=O)c1ccc(NCc3ccccc3)nc1)C2 [Example 119] | 5.17 | 4.98 | –
COc1ccc(CNc2ccc(C(=O)N3Cc4ccc(C(=O)NCc5cccnc5)n4Cc4ccccc43)cn2)cc1 [Example 122] | < 4.52 | 4.44 | –
